According to ChEMBL document CHEMBL3124789, “4,5-Dihydro-1H-pyrazolo[3,4-d]pyrimidine containing phenothiazines as antitubercular agents” (Bioorg Med Chem Lett, 2014):
Converted amounts (≈) assume the structure as drawn.

Legend:
[1] = system: Mycobacterium tuberculosis; assay: Antitubercular activity against Mycobacterium tuberculosis H37Rv assessed as growth inhibition at 6.25 ug/ml after 4 days by microplate alamar blue assay; format: functional; settings: 96 h
[2] = Selectivity index, ratio of IC50 for African green monkey Vero cells to MIC for Mycobacterium tuberculosis H37Rv; format: toxicity, cell-based; settings: read-out: Selectivity Index
[3] = system: Mycobacterium tuberculosis; assay: Antitubercular activity against Mycobacterium tuberculosis H37Rv assessed as growth inhibition by 2-fold dilution assay; format: functional
[4] = system: Vero; assay: Cytotoxicity against African green monkey Vero cells; format: cell-based; settings: Chlorocebus sabaeus

SMILES | inhibition at 6.25 µg/mL [1] [%] | selectivity ratio [2] | MIC [3] [mg/L] | IC50 [4] [mg/L]
Cc1nn(-c2ccc3c(c2)Nc2ccccc2S3)c2c1C(c1cccc(Cl)c1)NC(N)=N2 (centres undefined) | 56 | – | – | –
Cc1nn(-c2ccc3c(c2)Nc2ccccc2S3)c2c1C(c1ccccc1)NC(N)=N2 (centres undefined) | 78 | – | – | –
Cc1nn(-c2ccc3c(c2)Nc2ccccc2S3)c2c1C(c1ccccc1O)NC(N)=N2 (centres undefined) | 92 | 3.5 | 2.23 (≈ 5.06 µM) | 7.8 (≈ 17.7 µM)
Cc1nn(-c2ccc3c(c2)Nc2ccccc2S3)c2c1C(c1cccc(O)c1)NC(N)=N2 (centres undefined) | 57 | – | – | –
Cc1nn(-c2ccc3c(c2)Nc2ccccc2S3)c2c1C(c1ccc(O)cc1)NC(N)=N2 (centres undefined) | 67 | – | – | –
Cc1nn(-c2ccc3c(c2)Nc2ccccc2S3)c2c1C(c1ccccc1Cl)NC(N)=N2 (centres undefined) | 95 | 5.8 | 1.73 (≈ 3.77 µM) | > 10
Cc1nn(-c2ccc3c(c2)Nc2ccccc2S3)c2c1C(c1ccc(Cl)cc1)NC(N)=N2 (centres undefined) | 100 | > 500 | 0.02 (≈ 0.0436 µM) | > 10
Cc1nn(-c2ccc3c(c2)Nc2ccccc2S3)c2c1C(c1ccccc1[N+](=O)[O-])NC(N)=N2 (centres undefined) | 94 | 5.8 | 1.73 (≈ 3.68 µM) | > 10
Cc1nn(-c2ccc3c(c2)Nc2ccccc2S3)c2c1C(c1cccc([N+](=O)[O-])c1)NC(N)=N2 (centres undefined) | 73 | – | – | –
Cc1nn(-c2ccc3c(c2)Nc2ccccc2S3)c2c1C(c1ccc([N+](=O)[O-])cc1)NC(N)=N2 (centres undefined) | 95 | 5.2 | 1.73 (≈ 3.68 µM) | 9.1 (≈ 19.4 µM)
COc1ccc(C2NC(N)=Nc3c2c(C)nn3-c2ccc3c(c2)Nc2ccccc2S3)cc1 (centres undefined) | 42 | – | – | –
NNC(=O)c1ccncc1 [ISONIAZID] | – | > 40000 | 0.03 (≈ 0.219 µM) | > 1000
